Experimental data taken from ChEMBL document CHEMBL5705884, “Breaching the DNA damage checkpoint via PF-00477736, a novel small-molecule inhibitor of checkpoint kinase 1” (Mol Cancer Ther, 2008).
Active and inactive are the calls of the source. No cut-off for these calls is given here.

Key:
[1] = target: Vascular endothelial growth factor receptor 2 (Homo sapiens, UniProt P35968); experiment: Binding affinity to VEGFR2 (unknown origin) assessed as inhibition constant
[2] = target: Cyclin-dependent kinase 1 (Homo sapiens, UniProt P06493); experiment: Binding affinity to CDK1 (unknown origin) assessed as inhibition constant
[3] = AUC (0 to infinity) in nu/nu mouse at 20 mg/kg, ip by LCMS analysis; type: ADME, organism-based; conditions: in vivo
[4] = AUC (0 to infinity) in nu/nu mouse at 40 mg/kg, ip by LCMS analysis; type: ADME, organism-based; conditions: in vivo
[5] = Cmax in nu/nu mouse at 40 mg/kg, ip by LCMS analysis; type: ADME, organism-based; conditions: in vivo
[6] = Volume of distribution at steady state in Sprague-Dawley rat at 4 mg/kg, iv administered as bolus dose by LCMS analysis; type: ADME, organism-based; conditions: in vivo, read-out: Vdss
[7] = test system: HT-29; experiment: Inhibition of gemcitabine induced cell cycle arrest in human HT-29 cells assessed as increase in G2-M cell population pretreated with gemcitabine followed by compound treatment and measured after 10 to 48 hrs by flow cytometry analysis; type: functional, cell-based; conditions: time 10-48 hrs
[8] = test system: HT-29; experiment: Induction of apoptosis in gemcitabine induced human HT-29 cells assessed as apoptotic cell death measured after 48 hrs by PI staining based flow cytometry analysis (reference value: 8.6%); type: functional
[9] = test system: HT-29; experiment: Potentiation of gemcitabine induced cytotoxicity in human HT-29 cells assessed as cell survival at 180 nM measured after 4 to 48 hrs by coulter counter method relative to gemcitabine alone; type: functional; conditions: time 4-48 hrs, read-out: Activity
[10] = test system: HT-29; experiment: Potentiation of gemcitabine induced cytotoxicity in human HT-29 cells assessed as cell survival at 540 nM measured after 4 to 48 hrs by coulter counter method relative to gemcitabine alone; type: functional; conditions: time 4-48 hrs, read-out: Activity
[11] = test system: HT-29; experiment: Potentiation of camptothecin induced cytotoxicity in human HT-29 cells assessed as cell survival at 360 nM measured after 4 to 48 hrs by coulter counter method relative to camptothecin alone; type: functional; conditions: time 4-48 hrs, read-out: Activity
[12] = test system: HT-29; experiment: Antiproliferative activity against human HT-29 cells deficit of p53 expression assessed as inhibition of cell growth measured after 96 hrs by MTT assay; type: functional, cell-based; conditions: HT-29, 96 h
[13] = test system: K562; experiment: Antiproliferative activity against human K562 cells deficit of p53 expression assessed as inhibition of cell growth measured after 96 hrs by MTT assay; type: functional, cell-based; conditions: K562, 96 h
[14] = test system: HT-29; experiment: Potentiation factor, ratio of IC50 for human HT-29 cells to IC50 for human HT-29 cells in presence of gemcitabine; type: functional
[15] = test system: COLO 205; experiment: Potentiation factor, ratio of IC50 for human COLO 205 cells to IC50 for human COLO 205 cells in presence of carboplatin; type: functional
[16] = test system: COLO 205; experiment: Potentiation factor, ratio of IC50 for human COLO 205 cells to IC50 for human COLO 205 cells in presence of doxorubicin; type: functional
[17] = test system: COLO 205; experiment: Potentiation factor, ratio of IC50 for human COLO 205 cells to IC50 for human COLO 205 cells in presence of mytomicin-C; type: functional
[18] = test system: PC-3; experiment: Potentiation factor, ratio of IC50 for human PC-3 cells to IC50 for human PC-3 cells in presence of SN-38; type: functional
[19] = test system: K562; experiment: Potentiation factor, ratio of IC50 for human K562 cells to IC50 for human K562 cells in presence of gemcitabine; type: functional
[20] = test system: K562; experiment: Potentiation factor, ratio of IC50 for human K562 cells to IC50 for human K562 cells in presence of carboplatin; type: functional
[21] = test system: K562; experiment: Potentiation factor, ratio of IC50 for human K562 cells to IC50 for human K562 cells in presence of doxorubicin; type: functional
[22] = test system: HT-29; experiment: Inhibition of gemcitabine induced cell cycle arrest in human HT-29 cells assessed as disappearance of cyclin B level at 360 nM measured after 24 hrs by immunoblot analysis relative to control; type: functional
[23] = test system: HT-29; experiment: Induction of DNA damage in gemcitabine induced human HT-29 cells assessed as increase in intensity of H2AX phosphorylation at 360 nM measured after 24 hrs by immunoblot analysis; type: functional, cell-based
[24] = test system: COLO 205; experiment: Antitumor activity against human COLO 205 cells xenografted in athymic nude mouse model assessed as tumor growth inhibition at 40 mg/kg, ip administered twice daily in presence of gemcitabine (Gemcitabine alone= 58%); type: functional; conditions: read-out: TGI
[25] = test system: COLO 205; experiment: Antitumor activity against human COLO 205 cells xenografted in athymic nude mouse model assessed as tumor growth inhibition at 20 mg/kg, ip administered once daily in presence of gemcitabine (Gemcitabine alone= 58%); type: functional; conditions: read-out: TGI
[26] = test system: COLO 205; experiment: Antitumor activity against human COLO 205 cells xenografted in athymic nude mouse model assessed as potentiated tumor growth inhibition at 24 mg/kg, ip administered twice daily in presence of gemcitabine relative to control; type: functional; conditions: read-out: TGI
[27] = test system: COLO 205; experiment: Antitumor activity against human COLO 205 cells xenografted in athymic nude mouse model assessed as potentiated tumor growth inhibition at 15 mg/kg, ip administered once daily in presence of gemcitabine relative to control; type: functional; conditions: read-out: TGI
[28] = test system: COLO 205; experiment: Antitumor activity against human COLO 205 cells xenografted in athymic nude mouse model assessed as tumor growth delay by measuring test to control tumor ratio at 4 mg/kg, ip administered once daily in presence of gemcitabine (Gemcitabine alone = 8 %); type: functional
[29] = test system: COLO 205; experiment: Antitumor activity against human COLO 205 cells xenografted in athymic nude mouse model assessed as tumor growth delay by measuring test to control tumor ratio at 12 mg/kg, ip administered once daily in presence of gemcitabine (Gemcitabine alone= 8%); type: functional
[30] = test system: COLO 205; experiment: Antitumor activity against human COLO 205 cells xenografted in athymic nude mouse model assessed as tumor growth delay by measuring test to control tumor ratio at 7.5 mg/kg, ip administered twice daily in presence of gemcitabine (Gemcitabine alone = 3%); type: functional
[31] = test system: COLO 205; experiment: Antitumor activity against human COLO 205 cells xenografted in athymic nude mouse model assessed as tumor growth delay by measuring test to control tumor ratio at 15 mg/kg, ip administered twice daily in presence of gemcitabine (Gemcitabine alone = 3%); type: functional
[32] = test system: COLO 205; experiment: Antitumor activity against human COLO 205 cells xenografted in athymic nude mouse model assessed as tumor growth delay by measuring test to control tumor ratio at 30 mg/kg, ip administered twice daily in presence of gemcitabine (Gemcitabine alone = 3%); type: functional
[33] = test system: COLO 205; experiment: Antitumor activity against human COLO 205 cells xenografted in athymic nude mouse model assessed as gross log cell kill at 12 mg/kg, ip administered once daily in presence of gemcitabine (Gemcitabine alone = 0.5%); type: functional
[34] = test system: COLO 205; experiment: Antitumor activity against human COLO 205 cells xenografted in athymic nude mouse model assessed as gross log cell kill at 20 mg/kg, ip administered once daily in presence of gemcitabine (Gemcitabine alone = 0.5%); type: functional
[35] = Toxicity in athymic nude mouse assessed as effect on body weight at 4 to 20 mg/kg, ip administered once daily in presence of gemcitabine; type: organism-based; conditions: in vivo, dose 4-20 mg/kg
[36] = test system: COLO 205; experiment: In vivo inhibition of Chk1 in athymic nude mouse xenografted with gemcitabine treated human COLO 205 cells assessed as increase in caspase-3 level by immunohistochemical analysis; type: functional, cell-based; conditions: dose 15-30 mg/kg

Sequence of Vascular endothelial growth factor receptor 2 (P35968 whole entry): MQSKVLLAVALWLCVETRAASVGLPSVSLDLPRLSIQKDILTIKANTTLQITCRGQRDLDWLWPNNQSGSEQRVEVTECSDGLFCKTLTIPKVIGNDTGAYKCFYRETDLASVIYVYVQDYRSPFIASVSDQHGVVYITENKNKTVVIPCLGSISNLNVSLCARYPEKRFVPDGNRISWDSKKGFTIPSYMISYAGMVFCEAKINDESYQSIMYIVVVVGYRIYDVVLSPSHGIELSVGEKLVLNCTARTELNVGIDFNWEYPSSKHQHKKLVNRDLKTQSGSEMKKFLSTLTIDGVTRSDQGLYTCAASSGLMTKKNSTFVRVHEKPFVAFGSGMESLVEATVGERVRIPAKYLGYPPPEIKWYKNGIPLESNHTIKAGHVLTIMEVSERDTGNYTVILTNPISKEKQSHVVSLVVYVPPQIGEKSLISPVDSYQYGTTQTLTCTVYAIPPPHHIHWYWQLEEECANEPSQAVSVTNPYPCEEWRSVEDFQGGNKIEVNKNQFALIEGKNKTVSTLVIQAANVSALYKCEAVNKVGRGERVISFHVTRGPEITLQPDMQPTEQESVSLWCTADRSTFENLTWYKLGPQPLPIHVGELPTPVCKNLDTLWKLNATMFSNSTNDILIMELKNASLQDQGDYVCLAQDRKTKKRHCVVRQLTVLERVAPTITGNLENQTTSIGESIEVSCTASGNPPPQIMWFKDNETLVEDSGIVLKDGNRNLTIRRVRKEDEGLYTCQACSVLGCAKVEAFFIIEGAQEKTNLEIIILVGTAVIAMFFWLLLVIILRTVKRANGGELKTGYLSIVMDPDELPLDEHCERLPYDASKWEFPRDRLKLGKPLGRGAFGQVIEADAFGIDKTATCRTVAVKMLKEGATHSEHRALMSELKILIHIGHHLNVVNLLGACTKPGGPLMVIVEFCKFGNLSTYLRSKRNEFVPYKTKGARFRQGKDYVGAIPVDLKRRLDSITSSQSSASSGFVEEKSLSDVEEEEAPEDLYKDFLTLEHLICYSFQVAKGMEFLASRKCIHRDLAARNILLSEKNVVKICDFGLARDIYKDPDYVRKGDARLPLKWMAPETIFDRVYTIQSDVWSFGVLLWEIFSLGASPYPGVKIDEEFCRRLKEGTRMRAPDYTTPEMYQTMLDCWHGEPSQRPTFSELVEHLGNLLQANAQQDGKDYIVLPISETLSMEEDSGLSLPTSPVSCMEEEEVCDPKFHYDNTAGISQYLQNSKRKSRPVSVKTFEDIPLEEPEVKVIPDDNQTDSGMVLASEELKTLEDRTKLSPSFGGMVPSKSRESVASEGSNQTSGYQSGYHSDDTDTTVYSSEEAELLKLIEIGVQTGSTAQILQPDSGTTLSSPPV
Sequence of Cyclin-dependent kinase 1 (P06493 whole entry): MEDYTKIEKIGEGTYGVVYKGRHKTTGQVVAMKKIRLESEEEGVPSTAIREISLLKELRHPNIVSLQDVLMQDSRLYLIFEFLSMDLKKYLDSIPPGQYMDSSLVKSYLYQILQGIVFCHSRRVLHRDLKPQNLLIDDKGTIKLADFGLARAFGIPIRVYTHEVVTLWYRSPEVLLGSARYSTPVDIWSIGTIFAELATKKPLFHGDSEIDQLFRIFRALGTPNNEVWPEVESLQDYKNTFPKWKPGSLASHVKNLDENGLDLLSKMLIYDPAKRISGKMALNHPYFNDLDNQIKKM

## Cn1cc(-c2[nH]c3cc(NC(=O)[C@H](N)C4CCCCC4)cc4c3c2C=NNC4=O)cn1
[1]
  Ki: 16 nM
[2]
  Ki: 9.9 nM
[3]
  AUC(0-inf): 2670 ng·h/mL
[4]
  AUC(0-inf): 25800 ng·h/mL
[5]
  Cmax: 6780 ng/mL
[6]
  Vd: 0.7 L/kg
[7]
  inhibition: Active
[8]
  Activity: 78.6%
[9]
  viability at 0.18 µM: 75%
[10]
  viability at 0.54 µM: 69%
[11]
  viability at 0.36 µM: 84%
[12]
  IC50: 1800 nM
[13]
  IC50: 420 nM
[14]
  PF50: 9
[15]
  PF50: 5.4
[16]
  PF50: 1.1
[17]
  PF50: 5.3
[18]
  PF50: 1.3
[19]
  PF50: 5.6
[20]
  PF50: 1.9
[21]
  PF50: 1.1
[22]
  inhibition at 0.36 µM: 100%
[23]
  Activity: Active
[24]
  inhibition in vivo at 40 mg/kg: 90%
[25]
  inhibition in vivo at 20 mg/kg: 76%
[26]
  inhibition in vivo at 24 mg/kg: 55%
[27]
  inhibition in vivo at 15 mg/kg: 45%
[28]
  T/C: 8
[29]
  T/C: 8.5
[30]
  T/C: 13.25
[31]
  T/C: 11.25
[32]
  T/C: 9.75
[33]
  LCK: 0.53
[34]
  LCK: 0.75
[35]
  Activity: Non-Toxic
[36]
  inhibition: Dose-Dependent Effect
